Key:
[1] = Serum Vitamin A after nasal administration or drench (Example V); type: in vivo, beef steers
Description: (§1) These five treatments were:
(§2) Treatments were applied and cattle were bled via jugular venipuncture at 0, 6, and 24 hours post-dosing.

[2] = Serum Vitamin E after nasal administration or drench (Example VI); type: in vivo, beef steers
Description: as §1, §2

Vitamin A
Average Serum Levels-Vitamin A ([1]; Treatment 2: positive control, 15 ml drench, 1,000,000 IU Vitamin A in 15 ml water, 6 Hours): 277 ng/mL | Average Serum Levels-Vitamin A ([1]; Treatment 2: positive control, 15 ml drench, 1,000,000 IU Vitamin A in 15 ml water, 24 Hours): 247 ng/mL | Average Serum Levels-Vitamin A ([1]; Treatment 2: positive control, 15 ml drench, 1,000,000 IU Vitamin A in 15 ml water, time 0): 230 ng/mL | Average Serum Levels-Vitamin A ([1]; Treatment 3: solid form vitamins in 2 ml ethanol, 1,000,000 IU A, 100,000 IU D, 1000 IU B, 1 ml per nostril, 6 Hours): 344 ng/mL | Average Serum Levels-Vitamin A ([1]; Treatment 3: solid form vitamins in 2 ml ethanol, 1,000,000 IU A, 100,000 IU D, 1000 IU B, 1 ml per nostril, 24 Hours): 326 ng/mL | Average Serum Levels-Vitamin A ([1]; Treatment 3: solid form vitamins in 2 ml ethanol, 1,000,000 IU A, 100,000 IU D, 1000 IU B, 1 ml per nostril, time 0): 302 ng/mL | Average Serum Levels-Vitamin A ([1]; Treatment 4: vitamin E, A, D oils, Tween 80, nicotinic acid, Carbopol 934P, Pemulen TR2, NaOH, water, 1,000,000 IU A, 1 ml per nostril, 6 Hours): 314 ng/mL | Average Serum Levels-Vitamin A ([1]; Treatment 4: vitamin E, A, D oils, Tween 80, nicotinic acid, Carbopol 934P, Pemulen TR2, NaOH, water, 1,000,000 IU A, 1 ml per nostril, 24 Hours): 321 ng/mL | Average Serum Levels-Vitamin A ([1]; Treatment 4: vitamin E, A, D oils, Tween 80, nicotinic acid, Carbopol 934P, Pemulen TR2, NaOH, water, 1,000,000 IU A, 1 ml per nostril, time 0): 321 ng/mL | Average Serum Levels-Vitamin A ([1]; Treatment 5: vitamin E, A, D oils, Tween 80, Carbopol TR2, NaOH, water, 1,000,000 IU A, 1 ml per nostril, 6 Hours): 349 ng/mL | Average Serum Levels-Vitamin A ([1]; Treatment 5: vitamin E, A, D oils, Tween 80, Carbopol TR2, NaOH, water, 1,000,000 IU A, 1 ml per nostril, 24 Hours): 353 ng/mL | Average Serum Levels-Vitamin A ([1]; Treatment 5: vitamin E, A, D oils, Tween 80, Carbopol TR2, NaOH, water, 1,000,000 IU A, 1 ml per nostril, time 0): 343 ng/mL | course of serum level of Vitamin A ([1]; Treatment #3: nasal administration of Vitamin A/ethanol solution (FIG. 8, curve 810)): decreased from 6 to 24 hours post-dosing after an initial increase in the first 6 hours | course of serum level of Vitamin A ([1]; Treatment #4, nasal (FIG. 8, curve 830)): increased continuously from 6 hours to 24 hours post-dosing | course of serum level of Vitamin A ([1]; Treatment #5, nasal (FIG. 8, curve 820)): increased from 0 hours to 24 hours post-dosing

Vitamin E
Average Serum Level - Vitamin E ([2]; Treatment 2: positive control, 15 ml drench, 1200 IU Vitamin E in 15 ml water, 6 Hours): 1.8 micrograms/ml | Average Serum Level - Vitamin E ([2]; Treatment 2: positive control, 15 ml drench, 1200 IU Vitamin E in 15 ml water, 24 Hours): 2.0 micrograms/ml | Average Serum Level - Vitamin E ([2]; Treatment 2: positive control, 15 ml drench, 1200 IU Vitamin E in 15 ml water, time 0): 1.8 micrograms/ml | Average Serum Level - Vitamin E ([2]; Treatment 3: solid form vitamins in 2 ml ethanol, 1,000,000 IU A, 100,000 IU D, 1000 IU E, 1 ml per nostril, 6 Hours): 2.7 micrograms/ml | Average Serum Level - Vitamin E ([2]; Treatment 3: solid form vitamins in 2 ml ethanol, 1,000,000 IU A, 100,000 IU D, 1000 IU E, 1 ml per nostril, 24 Hours): 2.8 micrograms/ml | Average Serum Level - Vitamin E ([2]; Treatment 3: solid form vitamins in 2 ml ethanol, 1,000,000 IU A, 100,000 IU D, 1000 IU E, 1 ml per nostril, time 0): 2.7 micrograms/ml | Average Serum Level - Vitamin E ([2]; Treatment 4: vitamin E, A, D oils, Tween 80, nicotinic acid, Carbopol 934P, Pemulen TR2, NaOH, water, 1000 IU E, 1 ml per nostril, 6 Hours): 2.5 micrograms/ml | Average Serum Level - Vitamin E ([2]; Treatment 4: vitamin E, A, D oils, Tween 80, nicotinic acid, Carbopol 934P, Pemulen TR2, NaOH, water, 1000 IU E, 1 ml per nostril, 24 Hours): 2.7 micrograms/ml | Average Serum Level - Vitamin E ([2]; Treatment 4: vitamin E, A, D oils, Tween 80, nicotinic acid, Carbopol 934P, Pemulen TR2, NaOH, water, 1000 IU E, 1 ml per nostril, time 0): 2.7 micrograms/ml | Average Serum Level - Vitamin E ([2]; Treatment 5: vitamin E, A, D oils, Tween 80, Pemulen TR2, NaOH, water, 1000 IU E, 1 ml per nostril, 6 Hours): 2.0 micrograms/ml | Average Serum Level - Vitamin E ([2]; Treatment 5: vitamin E, A, D oils, Tween 80, Pemulen TR2, NaOH, water, 1000 IU E, 1 ml per nostril, 24 Hours): 2.2 micrograms/ml | Average Serum Level - Vitamin E ([2]; Treatment 5: vitamin E, A, D oils, Tween 80, Pemulen TR2, NaOH, water, 1000 IU E, 1 ml per nostril, time 0): 2.1 micrograms/ml | course of serum level of Vitamin E ([2]; Treatment #3, nasal (FIG. 9, curve 920)): increased from 6 hours to 24 hours post-dosing | course of serum level of Vitamin E ([2]; Treatment #5, nasal (FIG. 9, curve 910)): increased from 6 hours to 24 hours post-dosing
